Measurements published in patent US7138361B2, “Herbicidal heterocycles” (E. I. du Pont de Nemours and Company, priority 2000, dated 2006).

Tests used:
Format in all cases: in vivo
[1] = system: Surinam grass (Brachiaria decumbens); experiment: Test B postemergence
Outline: (§1)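 Ratings on a 0 to 100 visual scale (100 complete control) compare treated plants with controls 13 to 15 days after application. Treatments were pre- or postemergence sprays of compound in non-phytotoxic solvent with surfactant.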

[2] = system: barnyardgrass (Echinochloa crus-galli); experiment: Test B postemergence
Outline: as §1

[3] = system: blackgrass (Alopecurus myosuroides); experiment: Test B postemergence
Outline: as §1

[4] = system: cocklebur (Xanthium strumarium); experiment: Test B postemergence
Outline: as §1

[5] = system: corn (Zea mays); experiment: Test B postemergence
Outline: as §1

[6] = system: crabgrass (Digitaria sanguinalis); experiment: Test B postemergence
Outline: as §1

[7] = system: giant foxtail (Setaria faberii); experiment: Test B postemergence
Outline: as §1

[8] = system: lambsquarters (Chenopodium album); experiment: Test B postemergence
Outline: as §1

[9] = system: morning glory (Ipomoea hederacea); experiment: Test B postemergence
Outline: as §1

[10] = system: pigweed (Amaranthus retroflexus); experiment: Test B postemergence
Outline: as §1

[11] = system: velvetleaf (Abutilon theophrasti); experiment: Test B postemergence
Outline: as §1

[12] = system: wheat (Triticum aestivum); experiment: Test B postemergence
Outline: as §1

[13] = system: wild oat (Avena fatua); experiment: Test B postemergence
Outline: as §1

[14] = system: Surinam grass (Brachiaria decumbens); experiment: Test B preemergence
Outline: as §1

[15] = system: barnyardgrass (Echinochloa crus-galli); experiment: Test B preemergence
Outline: as §1

[16] = system: cocklebur (Xanthium strumarium); experiment: Test B preemergence
Outline: as §1

[17] = system: corn (Zea mays); experiment: Test B preemergence
Outline: as §1

[18] = system: crabgrass (Digitaria sanguinalis); experiment: Test B preemergence
Outline: as §1

[19] = system: giant foxtail (Setaria faberii); experiment: Test B preemergence
Outline: as §1

[20] = system: lambsquarters (Chenopodium album); experiment: Test B preemergence
Outline: as §1

[21] = system: morning glory (Ipomoea hederacea); experiment: Test B preemergence
Outline: as §1

[22] = system: pigweed (Amaranthus retroflexus); experiment: Test B preemergence
Outline: as §1

[23] = system: rice (Oryza saliva); experiment: Test B preemergence
Outline: as §1

[24] = system: velvetleaf (Abutilon theophrasti); experiment: Test B preemergence
Outline: as §1

[25] = system: barnyardgrass (Echinochloa crus-galli); experiment: Test C flooded paddy test; details: for Barnyardgrass plant response rating: Flooded Paddy, scale 0 to 100, 0 no effect, 100 complete control; for Plant response rating, Barnyardgrass: scale 0 to 100 (0 no effect, 100 complete control)
Outline: (§2)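 Response on a 0-to-100 scale (no effect to complete control) was assessed by eye versus controls. Plants had reached 2 leaves when treated in flooded paddy conditions. The assessment took place after 12–14 days of greenhouse growth.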

[26] = system: duck salad (Heteranthera limosa); experiment: Test C flooded paddy test; details: for Ducksalad plant response rating: Flooded Paddy, scale 0 to 100, 0 no effect, 100 complete control; for Plant response rating, Ducksalad: scale 0 to 100 (0 no effect, 100 complete control)
Outline: as §2

[27] = system: rice (Oryza saliva); experiment: Test C flooded paddy test; details: for Rice plant response rating: Flooded Paddy, scale 0 to 100, 0 no effect, 100 complete control; for Plant response rating, Rice: scale 0 to 100 (0 no effect, 100 complete control)
Outline: as §2

[28] = system: smallflower flatsedge (Cyperus difformis); experiment: Test C flooded paddy test; details: for Flatsedge plant response rating: Flooded Paddy, scale 0 to 100, 0 no effect, 100 complete control; for Plant response rating, Flatsedge: scale 0 to 100 (0 no effect, 100 complete control)
Outline: as §2

[29] = Rate 125 g/ha, scale 0 to 100, 0 no effect, 100 complete control
[30] = Rate 500 g/ha, scale 0 (no effect) to 100 (complete control), 13 to 15 days
[31] = Preemergence, Rate 500 g/ha, scale 0 to 100, 0 no effect, 100 complete control
[32] = preemergence, Rate 125 g/ha, scale of 0 to 100 where 0 is no effect and 100 is complete control, 13 to 15 days
[33] = flooded paddy test, Rate 125 g/ha
[34] = flooded paddy test, Rate 250 g/ha
[35] = flooded paddy test, Rate 62 g/ha, visually evaluated after 12 to 14 days, 0 = no effect, 100 = complete control
[36] = Rate 500 g/ha, scale 0 to 100, 0 is no effect, 100 is complete control, 13 to 15 days
[37] = flooded paddy test, Rate 62 g/ha

SMILES: CC(C)(C)c1ccn(C2CCN(c3ccc(F)c(C(F)(F)F)c3)C2=O)n1 (centres unmarked) [Compound 146]
- Plant response rating, Surinam grass [1, 29]: 0
- Plant response rating, Surinam grass [1, 30]: 0
- Plant response rating, Barnyardgrass [2, 29]: 0
- Plant response rating, Barnyardgrass [2, 30]: 90
- Plant response rating, Blackgrass [3, 29]: 0
- Plant response rating, Blackgrass [3, 30]: 0
- Plant response rating, Cocklebur [4, 29]: 0
- Plant response rating, Cocklebur [4, 30]: 0
- Plant response rating, Corn [5, 29]: 0
- Plant response rating, Corn [5, 30]: 0
- Plant response rating, Crabgrass [6, 29]: 0
- Plant response rating, Crabgrass [6, 30]: 60
- Plant response rating, Foxtail, Giant [7, 29]: 0
- Plant response rating, Foxtail, Giant [7, 30]: 70
- Plant response rating, Lambsquarters [8, 29]: 80
- Plant response rating, Lambsquarters [8, 30]: 100
- Plant response rating, Morningglory [9, 29]: 0
- Plant response rating, Morningglory [9, 30]: 0
- Plant response rating, Pigweed [10, 29]: 0
- Plant response rating, Pigweed [10, 30]: 70
- Plant response rating, Velvetleaf [11, 29]: 0
- Plant response rating, Velvetleaf [11, 30]: 0
- Plant response rating, Wheat [12, 29]: 0
- Plant response rating, Wheat [12, 30]: 0
- Plant response rating, Wild Oat [13, 29]: 0
- Plant response rating, Wild Oat [13, 30]: 0
- Plant response rating, Surinam grass [14, 31]: 100
- Plant response rating, Surinam grass [14, 32]: 40
- Plant response rating, Barnyardgrass [15, 31]: 100
- Plant response rating, Barnyardgrass [15, 32]: 90
- Plant response rating, Cocklebur [16, 31]: 0
- Plant response rating, Cocklebur [16, 32]: 0
- Plant response rating, Corn [17, 31]: 0
- Plant response rating, Corn [17, 32]: 0
- Plant response rating, Crabgrass [18, 31]: 100
- Plant response rating, Crabgrass [18, 32]: 100
- Plant response rating, Foxtail, Giant [19, 31]: 100
- Plant response rating, Foxtail, Giant [19, 32]: 100
- Plant response rating, Lambsquarters [20, 31]: 100
- Plant response rating, Lambsquarters [20, 32]: 100
- Plant response rating, Morningglory [21, 31]: 40
- Plant response rating, Morningglory [21, 32]: 0
- Plant response rating, Pigweed [22, 31]: 100
- Plant response rating, Pigweed [22, 32]: 100
- Plant response rating, Rice [23, 31]: 0
- Plant response rating, Rice [23, 32]: 0
- Plant response rating, Velvetleaf [24, 31]: 20
- Plant response rating, Velvetleaf [24, 32]: 0
- Barnyardgrass plant response rating ([25]; Rate 500 g/ha): 100
- Plant response rating, Barnyardgrass [25, 33]: 100
- Plant response rating, Barnyardgrass [25, 34]: 100
- Plant response rating (scale 0 to 100), Barnyardgrass [25, 35]: 75
- Ducksalad plant response rating ([26]; Rate 500 g/ha): 90
- Plant response rating, Ducksalad [26, 33]: 65
- Plant response rating, Ducksalad [26, 34]: 80
- Plant response rating (scale 0 to 100), Ducksalad [26, 35]: 40
- Rice plant response rating ([27]; Rate 500 g/ha): 85
- Plant response rating, Rice [27, 33]: 50
- Plant response rating, Rice [27, 34]: 50
- Plant response rating (scale 0 to 100), Rice [27, 35]: 15
- Flatsedge plant response rating ([28]; Rate 500 g/ha): 95
- Plant response rating, Flatsedge [28, 33]: 95
- Plant response rating, Flatsedge [28, 34]: 95
- Plant response rating (scale 0 to 100), Flatsedge [28, 35]: 60

SMILES: CCCCC(CCCC)c1ccn(C2OCN(c3cccc(C(F)(F)F)c3)C2=O)n1 (centres unmarked) [Compound 114]
- Plant response rating, Surinam grass [1, 29]: 30
- Plant response rating, Surinam grass [1, 36]: 30
- Plant response rating, Barnyardgrass [2, 29]: 0
- Plant response rating, Barnyardgrass [2, 36]: 20
- Plant response rating, Blackgrass [3, 29]: 0
- Plant response rating, Blackgrass [3, 36]: 0
- Plant response rating, Cocklebur [4, 29]: 50
- Plant response rating, Cocklebur [4, 36]: 60
- Plant response rating, Corn [5, 29]: 0
- Plant response rating, Corn [5, 36]: 0
- Plant response rating, Crabgrass [6, 29]: 20
- Plant response rating, Crabgrass [6, 36]: 30
- Plant response rating, Foxtail, Giant [7, 29]: 0
- Plant response rating, Foxtail, Giant [7, 36]: 0
- Plant response rating, Lambsquarters [8, 29]: 90
- Plant response rating, Lambsquarters [8, 36]: 100
- Plant response rating, Morningglory [9, 29]: 30
- Plant response rating, Morningglory [9, 36]: 60
- Plant response rating, Pigweed [10, 29]: 90
- Plant response rating, Pigweed [10, 36]: 100
- Plant response rating, Velvetleaf [11, 29]: 0
- Plant response rating, Velvetleaf [11, 36]: 0
- Plant response rating, Wheat [12, 29]: 20
- Plant response rating, Wheat [12, 36]: 30
- Plant response rating, Wild Oat [13, 29]: 30
- Plant response rating, Wild Oat [13, 36]: 50
- Plant response rating, Surinam grass [14, 31]: 0
- Plant response rating, Surinam grass [14, 32]: 0
- Plant response rating, Barnyardgrass [15, 31]: 0
- Plant response rating, Barnyardgrass [15, 32]: 0
- Plant response rating, Cocklebur [16, 31]: 0
- Plant response rating, Cocklebur [16, 32]: 0
- Plant response rating, Corn [17, 31]: 30
- Plant response rating, Corn [17, 32]: 20
- Plant response rating, Crabgrass [18, 31]: 0
- Plant response rating, Crabgrass [18, 32]: 0
- Plant response rating, Foxtail, Giant [19, 31]: 0
- Plant response rating, Foxtail, Giant [19, 32]: 0
- Plant response rating, Lambsquarters [20, 31]: 100
- Plant response rating, Lambsquarters [20, 32]: 30
- Plant response rating, Morningglory [21, 31]: 30
- Plant response rating, Morningglory [21, 32]: 0
- Plant response rating, Pigweed [22, 31]: 100
- Plant response rating, Pigweed [22, 32]: 30
- Plant response rating, Rice [23, 31]: 0
- Plant response rating, Rice [23, 32]: 0
- Plant response rating, Velvetleaf [24, 31]: 0
- Plant response rating, Velvetleaf [24, 32]: 0
- Barnyardgrass plant response rating ([25]; Rate 250 g/ha): 0
- Barnyardgrass plant response rating ([25]; Rate 500 g/ha): 0
- Plant response rating, Barnyardgrass [25, 37]: 0
- Plant response rating, Barnyardgrass [25, 33]: 0
- Ducksalad plant response rating ([26]; Rate 250 g/ha): 0
- Ducksalad plant response rating ([26]; Rate 500 g/ha): 0
- Plant response rating, Ducksalad [26, 37]: 0
- Plant response rating, Ducksalad [26, 33]: 0
- Rice plant response rating ([27]; Rate 250 g/ha): 0
- Rice plant response rating ([27]; Rate 500 g/ha): 0
- Plant response rating, Rice [27, 37]: 0
- Plant response rating, Rice [27, 33]: 0
- Flatsedge plant response rating ([28]; Rate 250 g/ha): 0
- Flatsedge plant response rating ([28]; Rate 500 g/ha): 0
- Plant response rating, Flatsedge [28, 37]: 0
- Plant response rating, Flatsedge [28, 33]: 0
